Measured values as given in publication PMC10222456, “Application of Physiologically Based Pharmacokinetic Modeling to Predict Drug–Drug Interactions between Elexacaftor/Tezacaftor/Ivacaftor and Tacrolimus in Lung Transplant Recipients” (Pharmaceutics, 2023).
“And” between values parts separate entries of the source, which are not always exact repeats. Identical values can stand only once. Like-named read-outs stand apart in the source and are kept apart here.

Legend:
CYP3A [1] = test system: CYP3A; parameters: method as in earlier work; settings: cited from earlier work
CYP3A [2] = assay: PBPK simulation of clinical DDI studies (model verification); parameters: species or system human
Experimental: For verification simulations, the dose and schedule of drugs were matched to the design of the corresponding clinical DDI study performed in healthy volunteers.
The input parameters of these CYP3A substrates are available in the compound library of Simcyp version 21: SV-Ethinylestradiol and Sim-Midazolam. […] For the ivacaftor–ethinylestradiol situation, ivacaftor 150 mg was administered orally twice daily for 28 days, while ethinylestradiol oral 0.035 mg was administered once daily for 21 days.
The PBPK models for posaconazole and voriconazole as CYP3A inhibitors were built according to the publications by Hong and Li et al., respectively. For the posaconazole–tacrolimus DDI study, posaconazole was administered orally at a dose of 400 mg twice daily for 7 days, and a single oral dose of tacrolimus 0.05 mg/kg was administered on day 7. For the voriconazole–tacrolimus DDI, voriconazole was administered orally at a dose of 400 mg twice daily for the first day, followed by 200 mg twice daily for the next 6 days, and a single oral dose of tacrolimus 0.1 mg/kg was administered on day 7.
To quantify the DDIs, the geometric mean ratios of AUC or Cmax in the presence or absence of CYP3A modulators were determined. The assessment of the DDI prediction success was based on whether predictions fell within a twofold range of the observed data.

CYP3A [3] = settings: cited from earlier work; for AUC ratio: co-administration with posaconazole 400 mg twice daily
[4] = cited from earlier work
[5] = cited from earlier work; remark: listed apart in the source
CYP3A4 [6] = settings: set to capture observed DDIs with ketoconazole or rifampin; cited from earlier work
[7] = cited from earlier work; remark: listed apart in the source
[8] = cited from earlier work; remark: listed apart in the source
CYP3A4 [9] = target: CYP3A4 (Homo sapiens, UniProt P08684); parameters: method as in Dai et al. [23]; settings: ref Dai et al. [23], cited from earlier work
Sequence of CYP3A4 (Homo sapiens, UniProt P08684) (P08684 whole entry): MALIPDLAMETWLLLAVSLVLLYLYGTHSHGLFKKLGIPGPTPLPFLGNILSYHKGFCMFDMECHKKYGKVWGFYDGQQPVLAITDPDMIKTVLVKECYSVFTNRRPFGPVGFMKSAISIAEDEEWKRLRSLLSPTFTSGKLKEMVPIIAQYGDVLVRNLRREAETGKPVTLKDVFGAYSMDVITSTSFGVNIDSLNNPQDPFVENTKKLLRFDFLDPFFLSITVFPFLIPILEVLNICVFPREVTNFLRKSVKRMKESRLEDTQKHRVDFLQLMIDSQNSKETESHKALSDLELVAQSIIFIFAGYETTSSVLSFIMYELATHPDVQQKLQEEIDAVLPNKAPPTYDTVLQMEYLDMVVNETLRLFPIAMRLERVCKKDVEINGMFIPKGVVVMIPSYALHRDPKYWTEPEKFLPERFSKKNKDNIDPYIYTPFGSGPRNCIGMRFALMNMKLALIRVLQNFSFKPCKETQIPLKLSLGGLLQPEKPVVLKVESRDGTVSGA

CYP3A5 = test system: CYP3A5; parameters: method as in Dai et al. [23]; settings: ref Dai et al. [23], cited from earlier work
Caco-2 cell = test system: Caco-2 cell; parameters: method as in Gertz et al. [22]; settings: ref Gertz et al. [22]; cited from earlier work
[10] = PBPK simulation of plasma or blood pharmacokinetics (Simcyp); settings: single dose oral or intravenous, Cmax and AUC
Source text: The PBPK models were implemented within the Simcyp Simulator (version 21; Certara, Sheffield, UK). To mimic the CF population, the distribution of ages and proportion of females were corrected to reflect the demographics of the CF population in the default healthy population library file (Sim-Healthy volunteers) provided in Simcyp® [18]. […] Further, the proportion of females was adjusted from 0.32 in the healthy population to 0.48 in CF. For the trial design, we used a population size of 100 (10 trials with 10 subjects in each trial).
Ivacaftor was orally administered under fed conditions to mimic the clinical setting, where a fat-containing food is required for optimal absorption. The simulated data were qualified using the plasma PK data observed in an adult CF population [11].
The whole-blood PK profiles of tacrolimus following single-dose administration (0.05 mg/kg oral or 0.01 mg/kg iv infusion for 4 h) were simulated to verify the performance of the tacrolimus model. Tacrolimus was administered under fasted conditions to mimic the clinical study. The simulated data were qualified using the blood PK data observed in a healthy adult population [24].
The prediction accuracies for the area under the curve (AUC) and maximum plasma concentration (Cmax) values were calculated as a ratio of mean observed over mean predicted values. […]

[11] = parameters: method as in Emoto et al. [25]; settings: ref Emoto et al. [25], cited from earlier work
[12] = Clinical case series: tacrolimus trough levels before and after starting ETI in CF lung transplant recipients; assay type: in vivo, human
Experimental: This was an IRB-approved, retrospective, single-center cohort study that reviewed all CF lung transplant recipients prescribed ETI post lung transplantation. Patients were included if they were 18 years of age or older with CF, with at least one F508del mutation/minimal function genotype or a mutation in the CFTR gene that is responsive to ETI based on in vitro data. To evaluate the impact of ETI on tacrolimus exposure, tacrolimus trough levels were recorded before and up to one month after starting ETI. Patients had to be clinically stable, with no significant changes in health status, or initiating new medications known to modulate CYP3A4 and/or P-gp one month before or after starting ETI. Patients lost to follow-up or with missing tacrolimus trough levels were excluded.
Collected data included age, sex, weight, baseline lung function, body mass index, CFTR genotype, additional comorbidities, transplant and ETI start dates, ETI and tacrolimus dosing regimens, concurrent CYP3A4 modulators, and tacrolimus blood levels.
Baseline lung function was defined as the highest forced expiratory volume in one second (FEV1) during the year prior to initiating ETI therapy, obtained from routine pulmonary function tests. Percent predicted FEV1 (ppFEV1) was then extrapolated using the Global Lung Function Initiative 2012 prediction equation [35]. Tacrolimus troughs were measured through routine clinical laboratory blood draws and analyzed by validated immunoturbidometric protocols. To assess the effects of ETI, tacrolimus doses and concentrations within one month before and after ETI start were recorded. The steady state for tacrolimus and ETI were estimated to be attained within four to five half-lives after starting a regimen. Tacrolimus troughs were recorded at least 2–3 days after a dose change and 5–6.5 days post ETI initiation, based on elexacaftor’s longest half-life of the three CFTR modulators. Furthermore, to explore potential variability in the adherence to therapy and the timing of blood draws, tacrolimus trough levels within one month post ETI were averaged. For two patients with a changed tacrolimus dose immediately prior to ETI initiation and without a corresponding trough level, we captured the next most recent dose and trough within a three-month period.
All statistical analyses were performed using GraphPad version 8.0.2, with a two-sided significance value of 0.05.

[13] = cited from earlier work; remark: listed apart in the source
[14] = victim drug +/− ivacaftor 150 mg oral twice daily, healthy volunteers
[15] = ivacaftor 150 mg q12h oral, plasma, adult CF population
[16] = individual patients 1–13, dose normalized
[17] = tacrolimus 0.05 mg/kg single dose oral, blood, healthy adults
[18] = tacrolimus 0.1 mg/kg single dose iv infusion (4 h), blood, healthy adults

SMILES: Cc1nn(C)cc1S(=O)(=O)NC(=O)c1ccc(-n2ccc(OCC(C)(C)C(F)(F)F)n2)nc1N1C[C@@H](C)CC1(C)C [elexacaftor]
- effect on the activity of CYP3A (CYP3A [1]): no significant effect

SMILES: C#C[C@]1(O)CC[C@H]2[C@@H]3CCc4cc(O)ccc4[C@H]3CC[C@@]21C [ethinylestradiol]
- AUC Ratio, Ratio (Simulated/Observed) (CYP3A [2]; victim drug +/− ivacaftor): 1.07
- Cmax Ratio, Ratio (Simulated/Observed) (CYP3A [2]; victim drug +/− ivacaftor): 0.91
- AUC Ratio, Observed GMR (90% CI) (CYP3A [3]; [14]): 1.07 (1.00, 1.14)
- Cmax Ratio, Observed GMR (90% CI) (CYP3A [3]; [14]): 1.22 (1.10, 1.36)

SMILES: CC(C)(C)c1cc(C(C)(C)C)c(NC(=O)c2c[nH]c3ccccc3c2=O)cc1O [ivacaftor]
- logP ([4]; ivacaftor model input): 5.68
- fraction of unbound drug in plasma (fu) ([5]; ivacaftor model input): 0.001
- fraction metabolized by CYP3A4 (fmCYP3A4) (CYP3A4 [6]): 98%
- Observed AUC (0–12 h) (mean) [7, 15]: 12,100 ng∙h/mL
- Observed Cmax (mean) [7, 15]: 1270 ng/mL
- Tmax ([8]; human, in vivo): 2 to 6 h
- half-life ([8]; human, in vivo): 15 h

SMILES: Cc1ncc2n1-c1ccc(Cl)cc1C(c1ccccc1F)=NC2 [midazolam]
- AUC Ratio, Ratio (Simulated/Observed) (CYP3A [2]; victim drug +/− ivacaftor): 1.09
- Cmax Ratio, Ratio (Simulated/Observed) (CYP3A [2]; victim drug +/− ivacaftor): 1.09
- AUC ratio (CYP3A [3]): 4.97
- AUC Ratio, Observed GMR (90% CI) (CYP3A [3]; [14]): 1.54 (1.39, 1.69)
- Cmax Ratio, Observed GMR (90% CI) (CYP3A [3]; [14]): 1.38 (1.26, 1.52)
- oral bioavailability [8]: 31–72%

SMILES: C=CC[C@@H]1/C=C(\C)C[C@H](C)C[C@H](OC)[C@H]2O[C@@](O)(C(=O)C(=O)N3CCCC[C@H]3C(=O)O[C@H](/C(C)=C/[C@@H]3CC[C@@H](O)[C@H](OC)C3)[C@H](C)[C@@H](O)CC1=O)[C@H](C)C[C@@H]2OC [tacrolimus]
- CYP3A4 Vmax (CYP3A4 [9]; 12-hydroxylation): 0.6 pmol/min/pmol CYP
- Km (CYP3A4 [9]; 12-hydroxylation): 0.29 µM
- CYP3A4 Vmax (CYP3A4 [9]; 13-O-desmethylation): 8 pmol/min/pmol CYP
- Km (CYP3A4 [9]; 13-O-desmethylation): 0.21 µM
- AUC Ratio, Ratio (Simulated/Observed) (CYP3A [2]; tacrolimus +/− posaconazole): 0.98
- Cmax Ratio, Ratio (Simulated/Observed) (CYP3A [2]; tacrolimus +/− posaconazole): 1.20
- AUC Ratio, Ratio (Simulated/Observed) (CYP3A [2]; tacrolimus +/− voriconazole): 1.07
- Cmax Ratio, Ratio (Simulated/Observed) (CYP3A [2]; tacrolimus +/− voriconazole): 1.00
- predicted AUC and Cmax ratio relative to the observed values (CYP3A [2]; tacrolimus model as victim, DDIs with posaconazole or voriconazole): 0.98 to 1.20
- Compound type ([4]; ref Gertz et al. [21]): Neutral
- Log Po:w ([4]; ref Gertz et al. [21]): 3.3
- CYP3A5 Vmax (CYP3A5; 12-hydroxylation): 1.4 pmol/min/pmol CYP
- Km (CYP3A5; 12-hydroxylation): 0.35 µM
- CYP3A5 Vmax (CYP3A5; 13-O-desmethylation): 17 pmol/min/pmol CYP
- Km (CYP3A5; 13-O-desmethylation): 0.21 µM
- Caco-2 permeability (Caco-2 cell): 13.1 10^−6 cm/s
- B/P (blood-to-plasma ratio) ([5]; ref Gertz et al. [21]): 35
- ratio of the predicted to observed PK parameters [10]: 0.8–1.3
- ka (absorption rate constant) ([11]; first-order absorption model): 3.68 h⁻¹
- kin ([11]; minimal PBPK model): 0.68 h⁻¹
- kout ([11]; minimal PBPK model): 0.10 h⁻¹
- Lag time [11]: 0.43 h
- Vsac (single adjusted compartment volume) [11]: 10.8 L/kg
- fa (fraction available from dosage form) [11]: 1.0
- TAC DN Trough Level, Post-ETI, Median ([12]; N = 13 cohort): 96.12 ng/mL per mg/kg/day
- TAC DN Trough Level, Pre-ETI, Median ([12]; N = 13 cohort): 73.41 ng/mL per mg/kg/day
- TAC Trough Concentration, Post-ETI, Median ([12]; N = 13 cohort): 9.05 ng/mL
- TAC Trough Concentration, Pre-ETI, Median ([12]; N = 13 cohort): 7.50 ng/mL
- Percent Difference DN Trough, Median (increase after starting ETI) ([12]; N = 13 cohort, p = 0.0479): 32%
- TAC Trough Concentration, Post-ETI ([12]; individual patients 1–13, averaged within one month post ETI): 9.50 ng/mL and 3.40 ng/mL and 8.90 ng/mL and 6.10 ng/mL and 5.58 ng/mL and 6.70 ng/mL and 9.05 ng/mL and 15.70 ng/mL and 14.10 ng/mL and 9.75 ng/mL and 9.73 ng/mL and 8.45 ng/mL and 11.30 ng/mL
- Percent Difference DN Trough ([12]; individual patients 1–13, post- vs pre-ETI): 62.10% and −57.76% and 30.93% and −6.95% and −47.69% and 35.60% and 53.90% and 125.51% and 74.90% and 65.49% and 32.22% and −21.64% and 13.23%
- TAC Trough Concentration, Pre-ETI ([12]; individual patients 1–13, within one month before ETI start): 5.60 ng/mL and 7.30 ng/mL and 7.10 ng/mL and 6.60 ng/mL and 11.40 ng/mL and 6.90 ng/mL and 8.40 ng/mL and 7.70 ng/mL and 7.50 ng/mL and 10.40 ng/mL
- TAC DN Trough Level, Post-ETI [12, 16]: 245.10 ng/mL per mg/kg/day and 19.30 ng/mL per mg/kg/day and 96.12 ng/mL per mg/kg/day and 101.40 ng/mL per mg/kg/day and 42.88 ng/mL per mg/kg/day and 62.88 ng/mL per mg/kg/day and 68.78 ng/mL per mg/kg/day and 162.86 ng/mL per mg/kg/day and 82.64 ng/mL per mg/kg/day and 451.10 ng/mL per mg/kg/day and 193.04 ng/mL per mg/kg/day and 54.29 ng/mL per mg/kg/day and 454.83 ng/mL per mg/kg/day
- TAC DN Trough Level, Pre-ETI [12, 16]: 151.20 ng/mL per mg/kg/day and 45.68 ng/mL per mg/kg/day and 73.41 ng/mL per mg/kg/day and 108.97 ng/mL per mg/kg/day and 81.98 ng/mL per mg/kg/day and 46.37 ng/mL per mg/kg/day and 44.69 ng/mL per mg/kg/day and 72.22 ng/mL per mg/kg/day and 47.25 ng/mL per mg/kg/day and 272.58 ng/mL per mg/kg/day and 146.00 ng/mL per mg/kg/day and 69.29 ng/mL per mg/kg/day and 401.70 ng/mL per mg/kg/day
- increase in tacrolimus DN trough levels ([12]; patients on a full dose of ETI): 32%
- increase in tacrolimus DN trough levels ([12]; subgroup of 4 patients on CYP3A4 modulators and reduced ETI dose): 22%
- AUC ratio (CYP3A [3]): 4.58
- AUC Ratio, Observed GMR (90% CI) (CYP3A [3]; tacrolimus +/− posaconazole): 4.5 (4.0, 5.2)
- Cmax Ratio, Observed GMR (90% CI) (CYP3A [3]; tacrolimus +/− posaconazole): 2.0 (2.0, 2.4)
- AUC Ratio, Observed GMR (90% CI) (CYP3A [3]; tacrolimus +/− voriconazole): 3.0 (2.7, 3.8)
- Cmax Ratio, Observed GMR (90% CI) (CYP3A [3]; tacrolimus +/− voriconazole): 2.0 (1.9, 2.5)
- increase of tacrolimus concentration (CYP3A [3]; with clarithromycin, despite a 64% reduction in the tacrolimus dose): fourfold
- Observed AUC (0–108 h) (mean) [7, 17]: 307 ng·h/mL
- Observed Cmax (mean) [7, 17]: 37.8 ng/mL
- Observed AUC (0–264 h) (mean) [7, 18]: 378 ng·h/mL
- Observed Cmax (mean) [7, 18]: 21.4 ng/mL
- dose excreted unchanged in urine [13]: less than 1%
- unchanged tacrolimus as share of total radioactivity excreted in feces ([13]; in vivo): less than 1%
- oral bioavailability [8]: < 20%
- bioavailability ([8]; significantly affected by the presence of food): 5–93%

SMILES: CC(C)(CO)c1cc2cc(NC(=O)C3(c4ccc5c(c4)OC(F)(F)O5)CC3)c(F)cc2n1C[C@@H](O)CO [tezacaftor]
- effect on the activity of CYP3A (CYP3A [1]): no significant effect
